# PubChem BioAssay AID1963831 (Molecular Pharmacology Branch, DTP, NCI, 2024)
# System: 889142-216-R-J1-PDC complex spheroid viability
# Test: Anticancer human tumor 889142-216-R-J1-PDC patient-derived bladder carcinoma cell line growth inhibition [POLQ]
# Settings: for IC50: curve of first compound; for viability, T/C: stronger effect = lower value
# Method in brief: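 PDC + HUVEC + MSC complex spheroids; POLQ inhibitors ± partner drugs; top conc. at/near clinical Cmax, else 10 microM (SN-38 1 microM), half-log dilutions; 37 degrees C, 5% CO2.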
# [1] = second compound 0.0316 µM, first compound 0.0316 µM
# [2] = second compound 0.0316 µM, first compound 0.1 µM
# [3] = second compound 0.0316 µM, first compound 0.316 µM
# [4] = second compound 0.0316 µM, first compound 1 µM
# [5] = second compound 0.0316 µM, first compound 3.16 µM
# [6] = second compound 0.0316 µM, first compound 10 µM
# [7] = second compound 0.1 µM, first compound 0.0316 µM
# [8] = second compound 0.1 µM, first compound 0.1 µM
# [9] = second compound 0.1 µM, first compound 0.316 µM
# [10] = second compound 0.1 µM, first compound 1 µM
# [11] = second compound 0.1 µM, first compound 3.16 µM
# [12] = second compound 0.1 µM, first compound 10 µM
# [13] = second compound 0.316 µM, first compound 0.0316 µM
# [14] = second compound 0.316 µM, first compound 0.1 µM
# [15] = second compound 0.316 µM, first compound 0.316 µM
# [16] = second compound 0.316 µM, first compound 1 µM
# [17] = second compound 0.316 µM, first compound 3.16 µM
# [18] = second compound 0.316 µM, first compound 10 µM
# [19] = second compound 1 µM, first compound 0.0316 µM
# [20] = second compound 1 µM, first compound 0.1 µM
# [21] = second compound 1 µM, first compound 0.316 µM
# [22] = second compound 1 µM, first compound 1 µM
# [23] = second compound 1 µM, first compound 3.16 µM
# [24] = second compound 1 µM, first compound 10 µM
# [25] = second compound 3.16 µM, first compound 0.0316 µM
# [26] = second compound 3.16 µM, first compound 0.1 µM
# [27] = second compound 3.16 µM, first compound 0.316 µM
# [28] = second compound 3.16 µM, first compound 1 µM
# [29] = second compound 3.16 µM, first compound 3.16 µM
# [30] = second compound 3.16 µM, first compound 10 µM
# [31] = second compound 10 µM, first compound 0.0316 µM
# [32] = second compound 10 µM, first compound 0.1 µM
# [33] = second compound 10 µM, first compound 0.316 µM
# [34] = second compound 10 µM, first compound 1 µM
# [35] = second compound 10 µM, first compound 3.16 µM
# [36] = second compound 10 µM, first compound 10 µM
# 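Further: spheroids exposed to compounds for seven days.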
# 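Wherever viability, T/C is given: 100% = DMSO vehicle control viability.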
compound,measurement,setting,value
CCc1cc2c(N3CCc4c(cc(Cn5ccnc5)cc4-c4cn(C)nc4C(F)(F)F)C3=O)cc(C)nc2c(OC)n1 + Cc1cccc(N(C)C(=O)C2C(O)CCN2c2nc(C)cc(C(F)(F)F)c2C#N)c1,IC50,second compound 0.0316 µM,> 10 µM
same,IC50,second compound 0.1 µM,> 10 µM
same,IC50,second compound 0.316 µM,> 10 µM
same,IC50,second compound 1 µM,> 10 µM
same,IC50,second compound 3.16 µM,> 10 µM
same,IC50,second compound 10 µM,> 10 µM
same,"viability, T/C",[1],109%
same,"viability, T/C",[2],132%
same,"viability, T/C",[3],121%
same,"viability, T/C",[4],108%
same,"viability, T/C",[5],91.3%
same,"viability, T/C",[6],80.8%
same,"viability, T/C",[7],119%
same,"viability, T/C",[8],98.8%
same,"viability, T/C",[9],105%
same,"viability, T/C",[10],114%
same,"viability, T/C",[11],109%
same,"viability, T/C",[12],96.8%
same,"viability, T/C",[13],113%
same,"viability, T/C",[14],111%
same,"viability, T/C",[15],137%
same,"viability, T/C",[16],137%
same,"viability, T/C",[17],130%
same,"viability, T/C",[18],83.9%
same,"viability, T/C",[19],91%
same,"viability, T/C",[20],106%
same,"viability, T/C",[21],143%
same,"viability, T/C",[22],112%
same,"viability, T/C",[23],94.7%
same,"viability, T/C",[24],84.3%
same,"viability, T/C",[25],104%
same,"viability, T/C",[26],121%
same,"viability, T/C",[27],114%
same,"viability, T/C",[28],94.9%
same,"viability, T/C",[29],112%
same,"viability, T/C",[30],69.9%
same,"viability, T/C",[31],89.2%
same,"viability, T/C",[32],88.3%
same,"viability, T/C",[33],109%
same,"viability, T/C",[34],144%
same,"viability, T/C",[35],83.7%
same,"viability, T/C",[36],70.8%
CCc1cc2c(N3CCc4c(cc(Cn5ccnc5)cc4-c4cn(C)nc4C(F)(F)F)C3=O)ccnc2c(OC)n1 + Cc1cccc(N(C)C(=O)C2C(O)CCN2c2nc(C)cc(C(F)(F)F)c2C#N)c1,IC50,second compound 0.0316 µM,> 10 µM
same,IC50,second compound 0.1 µM,> 10 µM
same,IC50,second compound 0.316 µM,> 10 µM
same,IC50,second compound 1 µM,> 10 µM
same,IC50,second compound 3.16 µM,> 10 µM
same,IC50,second compound 10 µM,> 10 µM
same,"viability, T/C",[1],110%
same,"viability, T/C",[2],98.7%
same,"viability, T/C",[3],121%
same,"viability, T/C",[4],125%
same,"viability, T/C",[5],127%
same,"viability, T/C",[6],103%
same,"viability, T/C",[7],95.2%
same,"viability, T/C",[8],116%
same,"viability, T/C",[9],120%
same,"viability, T/C",[10],123%
same,"viability, T/C",[11],102%
same,"viability, T/C",[12],87.3%
same,"viability, T/C",[13],116%
same,"viability, T/C",[14],115%
same,"viability, T/C",[15],130%
same,"viability, T/C",[16],140%
same,"viability, T/C",[17],132%
same,"viability, T/C",[18],76.8%
same,"viability, T/C",[19],93%
same,"viability, T/C",[20],85.7%
same,"viability, T/C",[21],148%
same,"viability, T/C",[22],122%
same,"viability, T/C",[23],127%
same,"viability, T/C",[24],74.5%
same,"viability, T/C",[25],85.3%
same,"viability, T/C",[26],107%
same,"viability, T/C",[27],128%
same,"viability, T/C",[28],115%
same,"viability, T/C",[29],109%
same,"viability, T/C",[30],75.8%
same,"viability, T/C",[31],86.5%
same,"viability, T/C",[32],88%
same,"viability, T/C",[33],102%
same,"viability, T/C",[34],87.6%
same,"viability, T/C",[35],92.9%
same,"viability, T/C",[36],74.3%
COc1ccc([C@@H](O)c2cc(-c3ncnc4cc(N5CCOCC5)ccc34)c(F)cc2Cl)nn1 + Cc1cccc(N(C)C(=O)C2C(O)CCN2c2nc(C)cc(C(F)(F)F)c2C#N)c1,IC50,second compound 0.0316 µM,3.76 µM
same,IC50,second compound 0.1 µM,2.71 µM
same,IC50,second compound 0.316 µM,2.26 µM
same,IC50,second compound 1 µM,2.85 µM
same,IC50,second compound 3.16 µM,3.89 µM
same,IC50,second compound 10 µM,1.85 µM
same,"viability, T/C",[1],123%
same,"viability, T/C",[2],81.2%
same,"viability, T/C",[3],102%
same,"viability, T/C",[4],69.6%
same,"viability, T/C",[5],47.6%
same,"viability, T/C",[6],36.8%
same,"viability, T/C",[7],99.5%
same,"viability, T/C",[8],98.8%
same,"viability, T/C",[9],97.7%
same,"viability, T/C",[10],67.1%
same,"viability, T/C",[11],51.1%
same,"viability, T/C",[12],40.9%
same,"viability, T/C",[13],106%
same,"viability, T/C",[14],103%
same,"viability, T/C",[15],90.3%
same,"viability, T/C",[16],59.6%
same,"viability, T/C",[17],49.7%
same,"viability, T/C",[18],35.5%
same,"viability, T/C",[19],103%
same,"viability, T/C",[20],112%
same,"viability, T/C",[21],90.3%
same,"viability, T/C",[22],66.7%
same,"viability, T/C",[23],52.5%
same,"viability, T/C",[24],35.9%
same,"viability, T/C",[25],94.8%
same,"viability, T/C",[26],79.8%
same,"viability, T/C",[27],64.4%
same,"viability, T/C",[28],70%
same,"viability, T/C",[29],58.6%
same,"viability, T/C",[30],35.2%
same,"viability, T/C",[31],91.2%
same,"viability, T/C",[32],80.5%
same,"viability, T/C",[33],63.6%
same,"viability, T/C",[34],53.6%
same,"viability, T/C",[35],53.6%
same,"viability, T/C",[36],28.9%
O=C(Nc1ccc(O)c(NS(=O)(=O)c2ccc(F)cc2)c1)c1ccc(-c2ccccc2)cc1 + Cc1cccc(N(C)C(=O)C2C(O)CCN2c2nc(C)cc(C(F)(F)F)c2C#N)c1,IC50,second compound 0.0316 µM,> 10 µM
same,IC50,second compound 0.1 µM,> 10 µM
same,IC50,second compound 0.316 µM,> 10 µM
same,IC50,second compound 1 µM,> 10 µM
same,IC50,second compound 3.16 µM,> 10 µM
same,IC50,second compound 10 µM,> 10 µM
same,"viability, T/C",[1],103%
same,"viability, T/C",[2],106%
same,"viability, T/C",[3],112%
same,"viability, T/C",[4],134%
same,"viability, T/C",[5],101%
same,"viability, T/C",[6],85.1%
same,"viability, T/C",[7],94.9%
same,"viability, T/C",[8],121%
same,"viability, T/C",[9],98.1%
same,"viability, T/C",[10],127%
same,"viability, T/C",[11],126%
same,"viability, T/C",[12],86.4%
same,"viability, T/C",[13],140%
same,"viability, T/C",[14],93.2%
same,"viability, T/C",[15],85.9%
same,"viability, T/C",[16],120%
same,"viability, T/C",[17],112%
same,"viability, T/C",[18],80.2%
same,"viability, T/C",[19],96.2%
same,"viability, T/C",[20],96.7%
same,"viability, T/C",[21],84%
same,"viability, T/C",[22],97.5%
same,"viability, T/C",[23],131%
same,"viability, T/C",[24],70.4%
same,"viability, T/C",[25],87.8%
same,"viability, T/C",[26],123%
same,"viability, T/C",[27],121%
same,"viability, T/C",[28],107%
same,"viability, T/C",[29],91.2%
same,"viability, T/C",[30],77.6%
same,"viability, T/C",[31],69.3%
same,"viability, T/C",[32],98.9%
same,"viability, T/C",[33],97%
same,"viability, T/C",[34],89.6%
same,"viability, T/C",[35],85.3%
same,"viability, T/C",[36],69.4%
